Tested on: rats subjected to sTBI
Test: sTBI rats, LMW-DS 1, 5, 15 mg/kg s.c. 30 min post-TBI: HPLC of brain energy metabolites, antioxidants, oxidative/nitrosative stress biomarkers (Example 4)
Format: in vivo, rat
Settings: 1 mg/kg
Description: Male Wistar rats (n=160) of 300-350 g body weight were used in this study. They were fed with standard laboratory diet and water ad libitum in a controlled environment.
As the accepted anesthetic mixture, animals received 35 mg/kg b.w. ketamine and 0.25 mg/kg body weight midazolam by intramuscular injection. Diffuse sTBI was induced according to the “weight drop” impact acceleration model set up by Marmarou et al. J. Neurosurg. 1994, 80: 291-300. This model causes diffuse axonal injury and it is able to reproduce the physical and mechanical characteristics of the diffuse TBI in humans.
Severe TBI was induced by dropping a 450 g weight from 2 meters height onto the rat head protected by a helmet (metal disk previously fixed on the skull using dental cement) in order to uniformly distribute the mechanical force to the brain. Rats were placed prone on a bed of specific polyurethane foam inserted in a special container; this foam dissipates the major part of the potential energy (deriving from the mechanical forces) and prevents any rebound of the animal after the impact that could produce spinal damages.
After 2 or 7 days from TBI induction, rats were anesthetized again and then immediately sacrificed. These time points are coincident with the worst biochemical derangement (2 days) or, in the case of a mildly injured brain, with a full metabolic recovery (7 days).
The drug treatment consisted in a subcutaneous injection of 0.5 ml of LMW-DS (ILB®, Tikomed, Viken, Sweden, WO 2016/076780) and administered at 3 different concentrations (1, 5 and 15 mg/kg body weight), according to the schematic protocol described below. Sham-operated animals underwent the same procedure of anesthesia but TBI and were used as the control group.
(§1) Rats subjected to sTBI and receiving a single administration of LMW-DS after 30 minutes post-TBI, with sacrifice at 2 days post-TBI. Animals were divided in the following subgroups: • 1. 12 animals subjected to sTBI and treated with 1 mg/kg b.w. LMW-DS • 2. 12 animals subjected to sTBI and treated with 5 mg/kg b.w. LMW-DS • 3. 12 animals subjected to sTBI and treated with 15 mg/kg b.w. LMW-DS
as §1, with “at 7” for “at 2”
Rats (n = 12) subjected to sTBI and receiving repeated administrations of the maximal dose of LMW-DS (15 mg/kg b.w.) after 30 minutes, 3 days and 5 days post-TBI, with sacrifice at 7 days post-TBI. Four additional rats were used for the histo-morphological studies. Total rats in this group: n=16
To minimize metabolite loss, an in vivo craniectomy was performed in all animals during anesthesia. The rat skull was carefully removed, the brain was exposed, sharply cut along the sagittal fissure and the two hemispheres were separated. The hemispheres dedicated to biochemical analyses were freeze-clamped by aluminum tongues pre-cooled in liquid nitrogen and then immersed in liquid nitrogen. The freeze-clamping procedure was introduced to accelerate freezing of the tissue, thus minimizing potential metabolite loss.
Tissue homogenization for metabolite analyses was effected as described below. After the wet weight (w.w.) determination, the frozen hemispheres were placed into 7 ml of ice-cold, nitrogen-saturated, precipitating solution (1:10 w/v) composed by CH3CN + 10 mM KH2PO4, pH 7.40, (3:1; v:v), and the homogenization was performed using an Ultra-Turrax homogenizer set at 24,000 rpm/min (Janke & Kunkel, Staufen, Germany). […]

For sodium salt of dextran sulfate [LMW-DS], the ADENOSINE (2 d post-sTBI) was 68.91 ± 16.50 nmol/g w.w, the ADP (2 d post-sTBI) was 333.90 ± 28.72 nmol/g w.w and the ADP-Ribose (2 d post-sTBI) was 25.69 ± 5.16 nmol/g w.w. The AMP (2 d post-sTBI) was 62.04 ± 7.46 nmol/g w.w, the “ASCORBIC ACID” value (2 d post-sTBI) was 2567.35 ± 147.76 nmol/g w.w and the ATP (2 d post-sTBI) was 1696.96 ± 99.43 nmol/g w.w. For the same substance, the Acetyl-CoA (2 d post-sTBI) was 27.74 ± 3.23 nmol/g w.w, the CDP choline (2 d post-sTBI) was 8.23 ± 1.22 nmol/g w.w and the CMP (2 d post-sTBI) was 29.39 ± 6.00 nmol/g w.w. It also gave a CREATININE (2 d post-sTBI) of 17.66 ± 3.29 nmol/g w.w, a CTP (2 d post-sTBI) of 33.01 ± 7.63 nmol/g w.w and a CYTIDINE (2 d post-sTBI) of 13.79 ± 2.49 nmol/g w.w. It also gave a CYTOSINE (2 d post-sTBI) of 13.47 ± 1.65 nmol/g w.w, a CoA-SH (2 d post-sTBI) of 9.42 ± 1.04 nmol/g w.w and a GDP (2 d post-sTBI) of 189.85 ± 26.23 nmol/g w.w. For the same substance, the “GDP Glucose” value (2 d post-sTBI) was 65.66 ± 41.61 nmol/g w.w, the GMP (2 d post-sTBI) was 205.06 ± 25.74 nmol/g w.w and the GSH (2 d post-sTBI) was 2337.06 ± 340.81 nmol/g w.w. The GTP (2 d post-sTBI) was 169.98 ± 17.93 nmol/g w.w, the GUANINE (2 d post-sTBI) was 1.62 ± 0.41 nmol/g w.w and the GUANOSINE (2 d post-sTBI) was 16.46 ± 2.73 nmol/g w.w. For the same substance, the HYPOXANTHINE (2 d post-sTBI) was 4.02 ± 0.66 nmol/g w.w, the IMP (2 d post-sTBI) was 45.97 ± 8.65 nmol/g w.w and the INOSINE (2 d post-sTBI) was 113.85 ± 14.84 nmol/g w.w. It also gave an MDA (2 d post-sTBI) of 44.00 ± 7.17 nmol/g w.w, a Malonyl-CoA (2 d post-sTBI) of 19.06 ± 4.04 nmol/g w.w and an NADH (2 d post-sTBI) of 9.42 ± 1.38 nmol/g w.w. The NADPH (2 d post-sTBI) was 13.07 ± 1.09 nmol/g w.w, the “NADP^+” value (2 d post-sTBI) was 11.79 ± 2.70 nmol/g w.w and the “NAD^+” value (2 d post-sTBI) was 325.87 ± 55.47 nmol/g w.w. It also gave an NO2 (2 d post-sTBI) of 158.36 ± 19.08 nmol/g w.w, an NO3 (2 d post-sTBI) of 99.16 ± 21.58 nmol/g w.w and a UDP (2 d post-sTBI) of 83.06 ± 8.52 nmol/g w.w. The UDP-Gal (2 d post-sTBI) was 118.50 ± 9.89 nmol/g w.w, the “UDP-GalNac” value (2 d post-sTBI) was 21.24 ± 3.13 nmol/g w.w and the UDP-Glc (2 d post-sTBI) was 45.14 ± 6.68 nmol/g w.w. The UDP-GlcNac (2 d post-sTBI) was 96.62 ± 8.80 nmol/g w.w, the UMP (2 d post-sTBI) was 148.04 ± 20.45 nmol/g w.w and the URACIL (2 d post-sTBI) was 17.18 ± 3.36 nmol/g w.w. The “URIC ACID” value (2 d post-sTBI) was 52.42 ± 10.75 nmol/g w.w, the URIDINE (2 d post-sTBI) was 79.93 ± 14.07 nmol/g w.w and the UTP (2 d post-sTBI) was 104.07 ± 16.34 nmol/g w.w. The XANTHINE (2 d post-sTBI) was 13.79 ± 1.43 nmol/g w.w, the β-PSEUDOURIDINE (2 d post-sTBI) was 11.64 ± 2.3 nmol/g w.w and the “NAD^+/NADH” value (2 d post-sTBI, adimensional ratio) was 33.91 ± 9.32. For the same substance, the ADENOSINE (7 d post-sTBI) was 26.08 ± 19.31 nmol/g w.w, the ADP (7 d post-sTBI) was 286.78 ± 38.19 nmol/g w.w and the ADP-Ribose (7 d post-sTBI) was 7.95 ± 1.99 nmol/g w.w. The AMP (7 d post-sTBI) was 43.13 ± 3.39 nmol/g w.w, the “ASCORBIC ACID” value (7 d post-sTBI) was 2177.22 ± 262.21 nmol/g w.w and the ATP (7 d post-sTBI) was 1792.01 ± 144.16 nmol/g w.w. It also gave an Acetyl-CoA (7 d post-sTBI) of 27.05 ± 4.61 nmol/g w.w, a CDP choline (7 d post-sTBI) of 6.26 ± 2.01 nmol/g w.w and a CMP (7 d post-sTBI) of 25.41 ± 10.81 nmol/g w.w. For the same substance, the CREATININE (7 d post-sTBI) was 6.57 ± 1.16 nmol/g w.w, the CTP (7 d post-sTBI) was 81.75 ± 31.55 nmol/g w.w and the CYTIDINE (7 d post-sTBI) was 29.67 ± 10.44 nmol/g w.w. The CYTOSINE (7 d post-sTBI) was 16.03 ± 3.44 nmol/g w.w, the CoA-SH (7 d post-sTBI) was 38.50 ± 4.94 nmol/g w.w and the GDP (7 d post-sTBI) was 121.72 ± 13.91 nmol/g w.w. The “GDP Glucose” value (7 d post-sTBI) was 112.22 ± 13.13 nmol/g w.w, the GMP (7 d post-sTBI) was 113.06 ± 53.51 nmol/g w.w and the GSH (7 d post-sTBI) was 1627.30 ± 214.51 nmol/g w.w. For the same substance, the GTP (7 d post-sTBI) was 438.65 ± 39.88 nmol/g w.w, the GUANINE (7 d post-sTBI) was 6.86 ± 2.92 nmol/g w.w and the GUANOSINE (7 d post-sTBI) was 19.11 ± 3.98 nmol/g w.w. It also gave an HYPOXANTHINE (7 d post-sTBI) of 16.97 ± 4.94 nmol/g w.w, an IMP (7 d post-sTBI) of 80.16 ± 20.53 nmol/g w.w and an INOSINE (7 d post-sTBI) of 124.27 ± 13.94 nmol/g w.w. The MDA (7 d post-sTBI) was 32.98 ± 5.44 nmol/g w.w, the Malonyl-CoA (7 d post-sTBI) was 5.43 ± 0.98 nmol/g w.w and the NADH (7 d post-sTBI) was 8.20 ± 1.41 nmol/g w.w. The NADPH (7 d post-sTBI) was 18.91 ± 4.39 nmol/g w.w, the “NADP^+” value (7 d post-sTBI) was 39.94 ± 14.65 nmol/g w.w and the “NAD^+” value (7 d post-sTBI) was 268.14 ± 37.97 nmol/g w.w. It also gave an NO2 (7 d post-sTBI) of 93.04 ± 20.16 nmol/g w.w, an NO3 (7 d post-sTBI) of 153.62 ± 26.24 nmol/g w.w and a UDP (7 d post-sTBI) of 38.59 ± 5.43 nmol/g w.w. The UDP-Gal (7 d post-sTBI) was 130.20 ± 8.95 nmol/g w.w and the UDP-GalNac (7 d post-sTBI) was 15.85 ± 4.54 nmol/g w.w.
